Data as given in PMC12865225 (Clinical and Translational Science, 2026).

Assay: PBPK model input parameters (binding, absorption, distribution, elimination), Simcyp
Parameters: species or system human
[1] = retrograde calculation from CLH (2.65 l/h)

Protocol: The volume of distribution
at steady-state (Vss), predicted using the Rodgers and Rowland model (Model 2) within the
oral (PO) data.7–9,11,12,14,24 Only studies with 1000 mg dosing or lower were included in the
model development and verification due to the possible nonlinear renal clearance of
(CLH) as a human liver microsomal clearance from the in vivo CLH calculated by subtracting
the CLR from the total CL. The model for oral dosing was optimized using data from the study
by Putnam et al. (2005).9 The absorption rate constant (ka) was calculated from the reported
mean absorption time9 and the fraction absorbed (fa) was optimized manually. The obtained
Tissue distribution was described using the full-body PBPK model, with the tissue-to-plasma
partition coefficient (Kp) predicted based on the Rodgers and Rowland method integrated
within the simulator (Method 2). The Kp value for adipose was optimized manually (0.04 to

CLH (Total CL – CLR): 2.65 L/h
CLu,int,CYP2C9 (µl/min/pmol P450) [1]: 0.124 µl/min/pmol P450
CLu,int,CYP3A4 (µl/min/pmol P450) [1]: 0.062 µl/min/pmol P450
Compound: Cc1onc(-c2c(F)cccc2Cl)c1C(=O)N[C@@H]1C(=O)N2[C@@H]1SC(C)(C)[C@@H]2C(=O)O [Flucloxacillin]
